Reference: patent US20160304970A1, “GENE BIOMARKER TO DIAGNOSE METASTIC LIVER CANCER AND METHODS FOR TARGETING THE SAME” (University of Southern California, priority 2015, published 2016)

Key:
[1] = CD133 cell viability screening (luminescence, CellTiter-Glo); format: cell-based; conditions: human, CD133 (−) Huh7 cells (freshly MACS-sorted)
Procedure: CD133(+) and CD133(−) Huh7 cells were freshly sorted using the MACS CD133 micro bead kit (Miltenyi Biotec, 130-050-801) and were seeded in 100 μl medium containing 5000 cells per well in a 96-well plate. Once the cells attached, the FDA approved drug library was added to each well to a final concentration of 20 μg/ml in duplicate. After incubation for 48 hours, the cell viability was determined by a luminescence assay. […] After 16 hours, 1 μl of a […] drug solution was individually added to the 96 wells, resulting in a 20 μg/ml final concentration for most compounds. After 48 hours, CellTiter-Glo® Reagent (G8233, Promega) was added and the luminescence signal was measured with an automated plate reader. The raw data for each well was background-corrected by DMSO control wells on the same plate.

[2] = test system: TICs; assay: RNA sequencing of drug treated TICs; format: cell-based, mouse; conditions: ATRA 5 μg/ml, 16 hours
Procedure: RNA sequencing samples were collected at 16 hours of treatment with ATRA (5 μg/ml), SAHA (0.5 μg/ml) or combination treatment. Total RNA for RNA sequencing was extracted using RNeasy Plus Mini Kit (Qiagen), which includes a DNA depletion column. DNase I treatment and rRNA depletion with Tibozero technology were performed before RNA sequencing. Sample quantity and quality was verified by spectrophotometry (NanoDrop 1000), fluorimetry (Qubit), and the Aglient Bioanalyzer 2100 profiler. RNA Integrity Number (RIN) values of >7.0 and OD260/280=2.0-2.2 were used for RNA-seq library preparation. Extracted RNA (1 μg) was used for RNA sequencing (Illumina HiSeq2500 system). Sequenced reads were cleaned according to a rigorous pre-processing workflow (Trimmomatic-0.32) before mapping them to the mouse genome (mm10) using SHRiMP2.2.3 (http://compbio.cs.toronto.edu/shrimp/). Cufflinks2.0.2 (cuffdiff2-Running Cuffdiff) was then used to perform differential expression analysis with a FDR cutoff of 0.05 (95% confidence interval). A Perl script was used after differential expression analysis to improve the readability of the results files. Quality control information was generated via Fastqc: www.bioinformatics.babraham.ac.uk/projects/fastqc/. […] All gene expression profiles were analyzed by Partek Flow, Ingenuity Pathway Analysis and Gene Set Enrichment Analysis.

[3] = test system: CD133 (+) Huh7 cells; assay: Tumor spheroid formation assay; format: cell-based, human; conditions: CD133 (+) group; ATRA 5 μg/ml, SAHA 0.5 μg/ml; 2 weeks
Procedure: Freshly sorted CD133(+)/(−) Huh7 cells were plated in a low binding culture plate (NUNC 145397) containing 100 cells per well in 100 μl of culture medium with ATRA (5 μg/ml), SAHA (0.5 μg/ml), or a combination of both. After 2 weeks, colony numbers were counted.

## CC1=C(/C=C/C(C)=C/C=C/C(C)=C/C(=O)O)C(C)(C)CCC1 [ATRA, all-trans retinoic acid]
[1]
  viability at 48 h, 20 μg/ml: 72%
[2]
  genes differentially expressed from the controls: 189 genes
[3]
  reduction of colony numbers, tumor spheroid formation: 83%
